These results are taken from ChEMBL document CHEMBL1133456, “Synthesis and anticonvulsant activity of novel and potent 6,7-methylenedioxyphthalazin-1(2H)-ones” (J Med Chem, 2000).

A short description of data set [1]: Ratio between TD50 and ED50 from the clonic phase of audiogenic seizures in mice. It counts as ADME, organism-based. To be noted: mouse, in vivo; read-out: Protective index.
Data set [2] can be described thus: Toxic dose in DBA/2 mice; Values ranges from: 82.6-306. It counts as toxicity. To be noted: DBA/2, mouse, in vivo.
A short description of data set [3]: Relative lipophilicity expressed as Rm value. The note with it: octanol/water. It counts as physicochemical.
Data set [4] in a line: Toxic dose in DBA/2 mice; Values ranges from: 59.5-88.2. It counts as toxicity. The note with it: DBA/2, mouse, in vivo.
Data set [5] can be described thus: Anticonvulsant activity against audiogenic seizures in DBA/2 mice expressed as ED50 values in tonic phase; Values ranges from: 8.98-27.3. It is filed as functional. The note with it: Mus musculus.
Data set [6] can be described thus: Anticonvulsant activity against audiogenic seizures in DBA/2 mice expressed as ED50 values in clonic phase; […]. It is filed as functional. The note with it: Mus musculus.
The nature of data set [7]: Anticonvulsant activity against audiogenic seizures in DBA/2 mice in clonic phase at a time interval of 90 min after intraperitoneal administration; Values ranges from: 30.5-62.3. The note with it: Mus musculus, ip, 1.5 h. It counts as functional.
Data set [8] can be described thus: Toxic dose in DBA/2 mice; Values ranges from: 44.3-81.6. The note with it: DBA/2, mouse, in vivo. It is filed as toxicity.
The nature of data set [9]: Anticonvulsant activity against ATPA induced seizures in DBA/2 mice expressed as ED50 values in tonic phase; Values ranges from: 22.7-44.8. It is filed as functional. To be noted: Mus musculus.
Data set [10] is described as follows: Anticonvulsant activity against AMPA induced seizures in DBA/2 mice expressed as ED50 values in clonic phase; Values ranges from: 27.1-47.3. It is filed as functional. To be noted: Mus musculus.
Data set [11] in a line: Anticonvulsant activity against AMPA induced seizures in DBA/2 mice expressed as ED50 values in tonic phase; Values ranges from: 32.6-62.7. The note with it: Mus musculus. It is filed as functional.
Data set [12] can be described thus: Anticonvulsant activity against ATPA induced seizures in DBA/2 mice expressed as ED50 values in clonic phase; Values ranges from: 25.8-57.7. It is filed as functional. The note with it: Mus musculus.
A short description of data set [13]: Anticonvulsant activity against maximal electroshock (MES) induced seizures in Swiss mice; Values ranges from: 29.9-57.3. It counts as functional. To be noted: Mus musculus. On the technique in general: The maximal electroshock test induces tonic seizures with an electrical stimulus.
Data set [14] can be described thus: Anticonvulsant activity against audiogenic seizures in DBA/2 mice in clonic phase at a time interval of 120 min after intraperitoneal administration. It is filed as functional. The note with it: Mus musculus, ip, 2 h.
Data set [15] can be described thus: Anticonvulsant activity against audiogenic seizures in DBA/2 mice in clonic phase at a time interval of 30 min after intraperitoneal administration; Values ranges from: 9.04-49.8. It counts as functional. To be noted: Mus musculus, ip, 0.5 h.
Data set [16] is described as follows: Anticonvulsant activity against audiogenic seizures in DBA/2 mice in clonic phase at a time interval of 45 min after intraperitoneal administration; Values ranges from: 13.8-41.2. The note with it: Mus musculus, ip, 0.75 h. It counts as functional.
Data set [17] can be described thus: Anticonvulsant activity against audiogenic seizures in DBA/2 mice after pretreatment with Aniracetam expressed as ED50 values in tonic phase; Values ranges from: 21.9-46.8. It is filed as functional. The note with it: Mus musculus.
A short description of data set [18]: Anticonvulsant activity against audiogenic seizures in DBA/2 mice in clonic phase at a time interval of 60 min after intraperitoneal administration; Values ranges from: 18.8-47.0. It is filed as functional. To be noted: Mus musculus, ip, 1 h.
Data set [19] in a line: Anticonvulsant activity against Pentylenetetrazole (PTZ) induced seizures in Swiss mice; Values ranges from: 30.9-78.8. It counts as functional. To be noted: Mus musculus.
A short description of data set [20]: Anticonvulsant activity against audiogenic seizures in DBA/2 mice expressed as ED50 values in tonic phase; Values ranges from: 2.47-23.1. It is filed as functional. The note with it: Mus musculus.
A short description of data set [21]: Anticonvulsant activity against KA induced seizures in swiss mice; Values ranges from: 30.3-50.1. To be noted: Mus musculus. It counts as functional.
Data set [22] can be described thus: Anticonvulsant activity against audiogenic seizures in DBA/2 mice after pretreatment with Aniracetam expressed as ED50 values in clonic phase; Values ranges from: 40.9-79.2. It is filed as functional. To be noted: Mus musculus.
Data set [23] is described as follows: Anticonvulsant activity against audiogenic seizures in DBA/2 mice expressed as ED50 values in clonic phase; Values ranges from: 9.04-49.8. It counts as functional. To be noted: Mus musculus.
The nature of data set [24]: Anticonvulsant activity against audiogenic seizures in DBA/2 mice in clonic phase at a time interval of 15 min after intraperitoneal administration; Values ranges from: 25.1-42.6. It counts as functional. The note with it: Mus musculus, ip, 0.25 h.
A short description of data set [25]: Toxic dose in DBA/2 mice; Values ranges from: 52.0-194. The note with it: DBA/2, mouse, in vivo. It counts as toxicity.
A short description of data set [26]: Anticonvulsant activity against audiogenic seizures in DBA/2 mice expressed as ED50 values in clonic phase. It counts as functional. To be noted: Mus musculus.
Data set [27] can be described thus: Anticonvulsant activity against audiogenic seizures in DBA/2 mice expressed as ED50 values in tonic phase. It counts as functional. To be noted: Mus musculus.
Data set [28] is described as follows: Ratio between TD50 and ED50 from the clonic phase of audiogenic seizures. It counts as ADME. The note with it: read-out: Protective index.
A short description of data set [29]: Toxic dose in DBA/2 mice. To be noted: DBA/2, mouse, in vivo. It is filed as toxicity.
Data set [30] in a line: Anticonvulsant activity against ATPA induced seizures in DBA/2 mice expressed as ED50 values in clonic phase. It counts as functional. To be noted: Mus musculus.
Data set [31] in a line: Anticonvulsant activity against KA induced seizures in DBA/2 mice. It counts as functional. To be noted: Mus musculus.
The nature of data set [32]: Anticonvulsant activity against AMPA induced seizures in DBA/2 mice expressed as ED50 values in clonic phase. The note with it: Mus musculus. It is filed as functional.
Data set [33] is described as follows: Anticonvulsant activity against audiogenic seizures in DBA/2 mice in clonic phase at a time interval of 120 min. It counts as functional. To be noted: Mus musculus, 2 h.
The nature of data set [34]: Anticonvulsant activity against audiogenic seizures in DBA/2 mice after pretreatment with Aniracetam expressed as ED50 values in clonic phase. It is filed as functional, Mus musculus.
A short description of data set [35]: Anticonvulsant activity against audiogenic seizures in DBA/2 mice in clonic phase at a time interval of 45 min. It counts as functional. To be noted: Mus musculus, 0.75 h.
The nature of data set [36]: Anticonvulsant activity against audiogenic seizures in DBA/2 mice in clonic phase at a time interval of 90 min. To be noted: Mus musculus, 1.5 h. It counts as functional.
Data set [37] is described as follows: Anticonvulsant activity against audiogenic seizures in DBA/2 mice in clonic phase at a time interval of 30 min. It counts as functional. To be noted: Mus musculus, 0.5 h.
The nature of data set [38]: Anticonvulsant activity against ATPA induced seizures in DBA/2 mice expressed as ED50 values in tonic phase. It is filed as functional. The note with it: Mus musculus.
Data set [39] in a line: Anticonvulsant activity against AMPA induced seizures in DBA/2 mice expressed as ED50 values in tonic phase. It counts as functional. To be noted: Mus musculus.
Data set [40] can be described thus: Anticonvulsant activity against audiogenic seizures in DBA/2 mice in clonic phase at a time interval of 60 min. It is filed as functional. To be noted: Mus musculus, 1 h.
Data set [41] can be described thus: Anticonvulsant activity against maximal electroshock (MES) induced seizures in Swiss mice. It counts as functional. The note with it: Mus musculus.
The nature of data set [42]: Anticonvulsant activity against audiogenic seizures in DBA/2 mice in clonic phase at a time interval of 15 min. The note with it: Mus musculus, 0.25 h. It is filed as functional.
Data set [43] can be described thus: Anticonvulsant activity against Pentylenetetrazole (PTZ) induced seizures in Swiss mice. It is filed as functional. To be noted: Mus musculus.
Data set [44] is described as follows: Toxic does was determined in DBA/2 mice; Values ranges from: 47.5-122. The note with it: DBA/2, mouse. It counts as toxicity.
Data set [45] is described as follows: Anticonvulsant activity against audiogenic seizures in DBA/2 mice in clonic phase at a time interval of 45 min after intraperitoneal administration; Values ranges from: 27.2-52.1. It is filed as functional. To be noted: Mus musculus, ip, 0.75 h.
Data set [46] in a line: Anticonvulsant activity against ATPA induced seizures in DBA/2 mice. activity is expressed as ED50 values in tonus phase; Values ranges from: 32.4-57.3. The note with it: Mus musculus. It is filed as functional.
Data set [47] in a line: Anticonvulsant activity against ATPA induced seizures in DBA/2 mice. activity is expressed as ED50 values in clonus phase; Values ranges from: 45.4-89.7. It is filed as functional. The note with it: Mus musculus.

Consider `O=C1Cc2cc3c(cc2C(c2ccccc2)=NN1)OCO3`, for which the selectivity ratio in data set [1] came to 3.7. Moreover, the TD50 (in general, the 50% point of the dose-response relation for the toxic effect studied) in data set [2] came to 159 µmol/kg. The molecule also registered a Rm in data set [3] of -0.142.
With `Nc1cccc(-c2nnc(O)c3cc4c(cc23)OCO4)c1`, the selectivity ratio in data set [1] worked out at 3.1. In data set [4], this molecule came in with a TD50 of 72.4 µmol/kg. The molecule also returned a Rm in data set [3] of -0.399. The ED50 in [5] was 15.7 µmol/kg; in data set [6] it was 23.3 µmol/kg.
Take `Nc1ccc(-c2nnc(O)c3cc4c(cc23)OCO4)cc1`: the ED50 in data set [7] is 43.6 µmol/kg; in [9], 31.9 µmol/kg; in data set [10] it was 35.8 µmol/kg; in [11], 45.2 µmol/kg; in data set [12], 38.6 µmol/kg; in data set [13] it was 41.4 µmol/kg. Besides, the ED50 was more than 50 µmol/kg in data set [14]; 21.2 µmol/kg in data set [15]; 23.8 µmol/kg in [16]; 32 µmol/kg in [17]; 29.7 µmol/kg in data set [18]; 49.4 µmol/kg in data set [19]. The ED50 in data set [20] came to 7.56 µmol/kg; in data set [21], 38.9 µmol/kg; in data set [22], 56.9 µmol/kg; in data set [23] it was 21.2 µmol/kg; in data set [24] it was 32.7 µmol/kg. For the same molecule, the selectivity ratio in data set [1] is 2.8. Besides, in data set [8], the TD50 was 60.1 µmol/kg. In [3], this molecule returned a Rm of -0.454.
For the molecule `Nc1cccc(C2=NNC(=O)Cc3cc4c(cc32)OCO4)c1`, in [1], the selectivity ratio was 5.6. The molecule further registered a Rm in data set [3] of -0.372. The same molecule registered a TD50 in data set [25] of 101 µmol/kg.
As to `O=[N+]([O-])c1ccc(-c2nnc(O)c3cc4c(cc23)OCO4)cc1`, the ED50 in [26] and in data set [27] was more than 100 µmol/kg throughout.
Take `CCNC(=O)n1nc(-c2ccc(N)cc2)c2cc3c(cc2c1=O)OCO3`: in data set [28], the selectivity ratio is 2.1. This molecule returned a TD50 in data set [29] of 91.1 µmol/kg. The Rm in [3] is listed as -0.235. In addition, the ED50 in data set [26] was found to be 42.6 µmol/kg; in [27] it was 35.1 µmol/kg.
For `Nc1ccc(-c2nn(C(=O)NC3CCCCC3)c(=O)c3cc4c(cc23)OCO4)cc1`, in that order: 2.2, 63.8 µmol/kg, 0.108, 28.4 µmol/kg and 26.2 µmol/kg.
In the case of `CCCCNC(=O)n1nc(-c2ccc(N)cc2)c2cc3c(cc2c1=O)OCO3`, the ED50 worked out at 36.2 µmol/kg in data set [30]; 36.2 µmol/kg in data set [31]; 37 µmol/kg in [32]; 44.1 µmol/kg in data set [33]; 12.3 µM/kg in data set [34]; 17.6 µmol/kg in data set [34] (Mus musculus, read-out: ED50). The ED50 came to 8.63 µmol/kg in [35]; 26.6 µmol/kg in [36]; 3.25 µmol/kg in [37]; 30.1 µmol/kg in data set [38]; 47.4 µmol/kg in data set [39]; 11.2 µmol/kg in [40]. Further, the ED50 in data set [41] came out at 33.1 µmol/kg; in data set [42], 13.9 µmol/kg; in [26], 3.25 µmol/kg; in [27], 2.23 µmol/kg; in [43], 41.9 µmol/kg. In addition, the selectivity ratio in data set [28] is 6.3. Moreover, the TD50 in [29] amounted to 20.4 µmol/kg. The Rm in [3] is listed as 0.002.
Turning to `CC1=NN=C(c2ccc(N)cc2)c2cc3c(cc2C1)OCO3` [GYKI-52466], the selectivity ratio in [1] is 2.1. In addition, the Rm in [3] is reported as -0.304. In [44], this molecule returned a TD50 of 76.1 µmol/kg. Moreover, the ED50 in [45] came to 37.3 µmol/kg; in data set [46], 43.1 µmol/kg; in data set [47], 63.8 µmol/kg.
